The record followed here is US3988456A, “1,2-Diphenylethanolamine derivatives and their salts and the preparation thereof” (Dainippon Pharmaceutical Co., Ltd., priority 1974, dated 1976).

The subject of one test is male mice of ddN strain. As to the kind of experiment: Analgesic activity: D'Amour-Smith method (thermal pain). It counts as in vivo. The settings on record: response time prolonged more than 100 %; for ED50: Mus musculus, sc; for Analgesic ED50 value, D'Amour-Smith method: s.c. How it is done: i. D'Amour-Smith method (cf. F. E. D'Amour and D. L. Smith, J. Pharmacol., Vol. 72, page 74, 1941)
Thermal pain was induced by radiating heat light on the tail blacked with a black ink of male mice of ddN strain, weighing 9 to 12 g, using the modified apparatus of D'Amour-Smith. The analgesic ED50 -value was calculated from the number of positive animals showing the response time prolonged more than 100 % compared with each before value.

Another test has as its system female mice. As to the kind of experiment: Analgesic activity: Phenylquinone method (chemical pain). Type of test: in vivo, mice (ddN strain). The settings on record: drugs given 30 minutes before i.p. phenylquinone; for ED50: Mus musculus, po. As for the experimental part: ii. Phenylquinone method (cf. E. Siegmund, R. Cadmus and G. Lu, Proc. Soc. Exptl. Biol. Med., Vol. 95, page 729, 1957)
Chemical pain was induced by an intraperitoneal injection of 0.1 ml/10 g body weight of 0.03 % phenylquinone in 5 % aqueous ethanol in female mice, weighing 18 to 22 g of ddN strain. Drugs were given 30 minutes before challenge of phenylquinone.

The next test has as its system Male guinea-pigs. As to the kind of experiment: Anti-tussive activity (coughs by mechanical stimulation). It counts as in vivo. The settings on record: intraperitoneal; for anti-tussive activity: dose of 5-40 mg/kg; for anti-tussive activity compared with codeine phosphate: vs codeine phosphate. As for the experimental part: 2. Anti-tussive activity (cf. K. Takagi, H. Fukuda and K. Yano, Yakugakuzasshi, Vol. 80, page 1497, 1960)
Male guinea-pigs, weighing 350 to 450 g, were used. Coughs were caused by successive mechanical stimulations with whiskers, and anti-tussive effects were evaluated by all or none of the cough. The Test Compounds F and G were intraperitoneally injected.

Structures can show the parent of a compound that is named as a salt. Some results are limits rather than exact numbers.

For orientation: ED50 means the midpoint of the dose-response relation. Low values mean an effect at a small dose, high ones a need for a large dose. Regarding `Cl.Cl.O=C(c1ccccc1)C(c1ccccc1)N1CCN(Cc2ccccc2)CC1` (racemic) [compound 2, dl-2-Phenyl-2-(4-benzylpiperazin-1-yl)acetophenone dihydrochloride, reference compound], the ED50 in the test on male mice of ddN strain is > 320 mg/kg. In the case of `COc1ccc(CN2CCN([C@H](c3ccccc3)[C@@H](O)c3ccc(Cl)cc3)CC2)cc1` (relative stereo) [Test Compound A, dl-Erythro-1-(p-chlorophenyl)-2-phenyl-2-[4-(p-methoxybenzyl)piperazin-1-yl]ethanol dihydrochloride], the ED50 in the test with female mice stood at 49.9 mg/kg. For `COc1ccc(CN2CCN([C@H](c3ccccc3Cl)[C@@H](O)c3ccccc3)CC2)cc1` (relative stereo) [Test Compound B, dl-Erythro-1-phenyl-2-(o-chlorophenyl)-2-[4-(p-methoxybenzyl)piperazin-1-yl]ethanol dihydrochloride], the ED50 with female mice came out at 45.1 mg/kg; in the test with male mice of ddN strain, 55.5 mg/kg.

On to `COc1ccc(CN2CCN([C@H](c3ccccc3OC)[C@@H](O)c3ccccc3)CC2)cc1` (relative stereo) [Test Compound C, dl-Erythro-1-phenyl-2-(o-methoxyphenyl)-2-[4-(p-methoxybenzyl)piperazin-1-yl]ethanol dihydrochloride], for which the ED50 came out at 28.6 mg/kg with female mice and 32.5 mg/kg with male mice of ddN strain. The like results for `COc1ccc(CN2CCN([C@H](c3ccc(C)cc3)[C@@H](O)c3ccc(C)cc3)CC2)cc1` (relative stereo) [Test Compound D, dl-Erythro-1-(p-tolyl)-2-(p-tolyl)-2-[4-(p-methoxybenzyl)piperazin-1-yl]ethanol dihydrochloride] were, in that order, 55.6 mg/kg and 98.6 mg/kg. The like results for `COc1ccc(CN2CCN([C@H](c3ccccc3C)[C@@H](O)c3ccccc3)CC2)cc1` (relative stereo) [Test Compound E, dl-Erythro-1-phenyl-2-(o-tolyl)-2-[4-(p-methoxybenzyl)-piperazin-1-yl]ethanol dihydrochloride] were, in that order, 30.2 mg/kg and 65.2 mg/kg.

For `COc1ccc(CN2CCN([C@H](c3ccccc3)[C@@H](O)c3cccc(C)c3)CC2)cc1` (relative stereo) [Test Compound G, dl-erythro-1-(m-tolyl)-2-phenyl-2-[4-(p-methoxybenzyl)piperazine-1-yl]ethanol dihydrochloride], in the test with Male guinea-pigs, the anti-tussive activity result is reported as “excellent anti-tussive activity in a dose of 5-40 mg/kg” and the “anti-tussive activity compared with codeine phosphate” value is listed as “comparable with that of codeine phosphate”. Take `CN1CCN([C@H](c2ccccc2)[C@@H](O)c2ccccc2)CC1` (relative stereo) [compound 1, dl-Erythro-1,2-diphenyl-2-(4-methylpiperazin-1-yl)ethanol dihydrochloride, reference compound]: in the test on male mice of ddN strain, the “Analgesic ED50 value, D'Amour-Smith method” value is “inactive”. Take `COc1ccc(CN2CCN(C(c3ccccc3)C(O)c3ccccc3)CC2)cc1.Cl.Cl` (stereo not drawn) [Test Compound F, d-Erythro-1,2-diphenyl-2-[4-(p-methoxybenzyl)piperazin-1-yl]ethanol dihydrochloride]: the “Analgesic ED50 value, Phenylquinone method” value in the test with female mice (p.o.) is 63.2 mg/kg. In the test on Male guinea-pigs, the anti-tussive activity result was “excellent anti-tussive activity in a dose of 5-40 mg/kg” and the “anti-tussive activity compared with codeine phosphate” value is “more potent than that of codeine phosphate”. Further, the “Analgesic ED50 value, D'Amour-Smith method” value with male mice of ddN strain was found to be 37.2 mg/kg. For `Cc1c(N(C)C)c(=O)n(-c2ccccc2)n1C` [compound 3, Aminopyrine, reference compound], the values for the ED50 in the test with female mice and with male mice of ddN strain were 53.3 mg/kg and 233 mg/kg, respectively.
